Test system: HCV pseudoparticles (genotype 1a HCV E1 and E2 envelope, H77C isolate)
Experiment: microbe, parasite or virus in culture
Format: cell-based
Details: Hepatitis C virus, Huh-7, 48 h, HCV pseudoparticle infection of Huh7 cells, luciferase 2 days after infection; average of duplicates

Structure (SMILES) | EC50 [nM]
CNC(=O)C(=O)NCC(NC(=O)c1ccc(Nc2nc(NC3(c4ccc(Cl)cc4)CC3)nc(OCC(F)(F)F)n2)cc1)C(=O)O (stereo in doubt) [Compound 1006, (S)-2-(4-(4-(1-(4-chlorophenyl)cyclopropylamino)-6-(2,2,2-trifluoroethoxy)-1,3,5-triazin-2-ylamino)benzamido)-3-(2-(methylamino)-2-oxoacetamido)propanoic acid] | 0.69

Same assay, conditions: Hepatitis C virus, Huh-7, 48 h, HCV pseudoparticles (genotype 1a, H77C) in Huh7 cells; average of duplicate; luciferase 2 days after infection

Structure (SMILES) | EC50 [nM]
Cc1cc(NC(=O)C(=O)NCC(C)(C)CNC(=O)c2ccc(Nc3nc(NC4(c5ccc(Cl)cc5)CC4)nc(OCC(F)(F)F)n3)cc2)sn1 [Compound 3010] | 0.014
CC(C)(CNC(=O)C(=O)Nc1ccc(Cl)nc1)CNC(=O)c1ccc(Nc2nc(NC3(c4ccc(Cl)cc4)CC3)nc(OCC(F)(F)F)n2)cc1 [Compound 3255] | 0.029
COC(=O)[C@H](CCNC(=O)C(=O)Nc1ccc(OC2CCOCC2)cc1)NC(=O)c1ccc(Nc2nc(NC3(c4ccc(Cl)cc4)CC3)nc(OCC(F)(F)F)n2)cc1 [Compound 3325] | 2.4

Same assay, conditions: Hepatitis C virus, Huh-7, 48 h, read-out: Activity (EC50 class), HCV pseudoparticle infection of Huh7 cells, luciferase 2 days after infection; EC50 expressed as class A/B

Structure (SMILES) | EC50 [nM]
COC(=O)[C@H](CCNC(=O)C(=O)NC1CCCCCC1)NC(=O)c1ccc(Nc2nc(NC3(c4ccc(Cl)cc4)CC3)nc(OCC(F)(F)F)n2)cc1 [Compound 1141] | 0.01 to 10
CC(C)(CNC(=O)C(=O)Nc1cccc(-c2nn[nH]n2)c1)CNC(=O)c1ccc(Nc2nc(NC3(c4ccc(Cl)cc4)CC3)nc(OCC(F)(F)F)n2)cc1 [Compound 1489] | 0.01 to 10
CC(C)(CNC(=O)C(=O)NC1CCCCCC1)CNC(=O)c1ccc(Nc2nc(NC3(c4ccc(Cl)cc4)CC3)nc(OCC(F)(F)F)n2)cc1 [Compound 1033, N1-(3-(4-(4-(1-(4-chlorophenyl)cyclopropylamino)-6-(2,2,2-trifluoroethoxy)-1,3,5-triazin-2-ylamino)benzamido)-2,2-dimethylpropyl)-N2-cycloheptyloxalamide] | 0.01 to 10
CNC(=O)C(=O)NCC(NC(=O)c1ccc(Nc2nc(NC3(c4ccc(Cl)cc4)CC3)nc(OCC(F)(F)F)n2)cc1)C(=O)O (stereo in doubt) [Compound 1006, (S)-2-(4-(4-(1-(4-chlorophenyl)cyclopropylamino)-6-(2,2,2-trifluoroethoxy)-1,3,5-triazin-2-ylamino)benzamido)-3-(2-(methylamino)-2-oxoacetamido)propanoic acid] | 0.01 to 10
COC1CCCCC1CNC(=O)C(=O)NCC[C@H](NC(=O)c1ccc(Nc2nc(NC3(c4ccc(Cl)cc4)CC3)nc(OCC(F)(F)F)n2)cc1)C(=O)O (stereo partly shown) [Compound 1182] | 0.01 to 10
O=C(NC[C@H](NC(=O)c1ccc(Nc2nc(NC3(c4ccc(Cl)cc4)CC3)nc(OCC(F)(F)F)n2)cc1)C(=O)O)C(=O)Nc1ccccc1F [Compound 1361] | 0.01 to 10
CC(C)(CNC(=O)C(=O)Nc1ccc(O)cc1)CNC(=O)c1ccc(Nc2nc(NCc3ccc(O)cc3)nc(OCC(F)(F)F)n2)cc1 [Compound 1496] | 0.01 to 10
COC(=O)[C@H](CNC(=O)C(=O)NCc1ccccc1OC)NC(=O)c1ccc(Nc2nc(NC3(c4ccc(Cl)cc4)CC3)nc(OCC(F)(F)F)n2)cc1 [Compound 1150] | 0.01 to 10
COC(=O)[C@H](CCNC(=O)C(=O)Nc1ccc(F)c(F)c1F)NC(=O)c1ccc(Nc2nc(NC3(c4ccc(Cl)cc4)CC3)nc(OCC(F)(F)F)n2)cc1 [Compound 1508] | 0.01 to 10
O=C(NCC[C@@H](NC(=O)c1ccc(Nc2nc(NC3(c4ccc(Cl)cc4)CC3)nc(OCC(F)(F)F)n2)cc1)C(=O)O)C(=O)Nc1ccccc1Cl [Compound 1534] | 0.01 to 10
CNC(=O)C(=O)NCC[C@H](NC(=O)c1ccc(Nc2nc(NC3(c4ccc(Cl)cc4)CC3)nc(OCC(F)(F)F)n2)cc1)C(=O)OC [Compound 1010, (S)-methyl 2-(4-(4-(1-(4-chlorophenyl)cyclopropylamino)-6-(2,2,2-trifluoroethoxy)-1,3,5-triazin-2-ylamino)benzamido)-4-(2-(methylamino)-2-oxoacetamido)butanoate] | 0.01 to 10
O=C(NCC[C@@H](NC(=O)c1ccc(Nc2nc(NC3(c4ccc(Cl)cc4)CC3)nc(OCC(F)(F)F)n2)cc1)C(=O)O)C(=O)Nc1ccc(Cl)cc1 [Compound 1555] | 0.01 to 10
COC(=O)[C@H](CCNC(=O)C(=O)NC1CCC(O)CC1)NC(=O)c1ccc(Nc2nc(NC3(c4ccc(Cl)cc4)CC3)nc(OCC(F)(F)F)n2)cc1 (stereo partly shown) [Compound 1073] | 0.01 to 10
COC(=O)[C@H](CCNC(=O)C(=O)Nc1ccc(-c2ccccc2)cc1)NC(=O)c1ccc(Nc2nc(NC3(c4ccc(Cl)cc4)CC3)nc(OCC(F)(F)F)n2)cc1 [Compound 1524] | 0.01 to 10
COC(=O)[C@H](CCNC(=O)C(=O)Nc1ccnn1C)NC(=O)c1ccc(Nc2nc(NC3(c4ccc(Cl)cc4)CC3)nc(OCC(F)(F)F)n2)cc1 [Compound 1239] | 0.01 to 10
CC(C)(CNC(=O)C(=O)Nc1ccc(-c2ccccc2)cc1)CNC(=O)c1ccc(Nc2nc(NC3(c4ccc(Cl)cc4)CC3)nc(OCC(F)(F)F)n2)cc1 [Compound 1590] | 0.01 to 10
O=C(NCC[C@H](NC(=O)c1ccc(Nc2nc(NC3(c4ccc(Cl)cc4)CC3)nc(OCC(F)(F)F)n2)cc1)C(=O)O)C(=O)NC1C[C@H]2CC[C@@H]1C2 (stereo partly shown) [Compound 1120] | 0.01 to 10

Same assay, conditions: Hepatitis C virus, Huh-7, 48 h, read-out: Activity (EC50 class), HCV pseudoparticles, Huh7 cells, luciferase 2 days after infection; average of duplicates

Structure (SMILES) | EC50 [nM]
COC(=O)[C@H](CNC(=O)C(=O)Nc1ccc(OCCN(C)C)nc1)NC(=O)c1ccc(Nc2nc(NC3(c4ccc(Cl)cc4)CC3)nc(OCC(F)(F)F)n2)cc1 [Compound 3735] | 0.01 to 10
Cc1ccc(NC(=O)C(=O)NCC[C@H](NC(=O)c2ccc(Nc3nc(NC4(c5ccc(Cl)cc5)CC4)nc(OCC(F)(F)F)n3)cc2)C(=O)O)cn1 [Compound 3636] | 0.01 to 10
Cc1nc(-c2cccc(NC(=O)C(=O)NC[C@H](NC(=O)c3ccc(Nc4nc(NC5(c6ccc(Cl)cc6)CC5)nc(OCC(F)(F)F)n4)cc3)C(=O)Cl)c2)no1 [Compound 3785] | 0.01 to 10
O=C(NCC[C@H](NC(=O)c1ccc(Nc2nc(NC3(c4ccc(Cl)cc4)CC3)nc(OCC(F)(F)F)n2)cc1)C(=O)O)C(=O)Nc1cccc(Oc2ccccc2)c1 [Compound 3620] | 0.01 to 10
COC(=O)[C@H](CNC(=O)C(=O)Nc1cccc(S(=O)(=O)c2ccccc2)c1)NC(=O)c1ccc(Nc2nc(NC3(c4ccc(Cl)cc4)CC3)nc(OCC(F)(F)F)n2)cc1 [Compound 3701] | 0.01 to 10
COC(=O)[C@H](CCNC(=O)C(=O)Nc1cccc(C2=NC(C)=CC2)c1)NC(=O)c1ccc(Nc2nc(NC3(c4ccc(Cl)cc4)CC3)nc(OCC(F)(F)F)n2)cc1 [Compound 3601] | 0.01 to 10
COC(=O)[C@H](CNC(=O)C(=O)Nc1cccc(CCc2ccccn2)c1)NC(=O)c1ccc(Nc2nc(NC3(c4ccc(Cl)cc4)CC3)nc(OCC(F)(F)F)n2)cc1 [Compound 3713] | 0.01 to 10
CC(C)(CNC(=O)C(=O)Nc1nc2c(Cl)ccc(Cl)c2s1)CNC(=O)c1ccc(Nc2nc(NC3(c4ccc(Cl)cc4)CC3)nc(OCC(F)(F)F)n2)cc1F [Compound 3681] | 0.01 to 10

Same assay, conditions: Hepatitis C virus, Huh-7, read-out: Activity (EC50 class), HCV pseudoparticles (genotype 1a, H77C) in Huh7 cells; EC50 expressed as class A/B

Structure (SMILES) | EC50 [nM]
COC(=O)/C(CCNC(=O)C(=O)Nc1cccc(S(=O)(=O)C(F)(F)F)c1)=N\C(=O)c1ccc(Nc2nc(NC3(c4ccc(Cl)cc4)CC3)nc(OCC(F)(F)F)n2)cc1 [Compound 3589] | 0.01 to 10
O=C(NC/C(=N/C(=O)c1ccc(Nc2nc(NC3(c4ccc(Cl)cc4)CC3)nc(OCC(F)(F)F)n2)cc1)C(=O)O)C(=O)Nc1ccc(C(=O)c2ccccc2)cc1 [Compound 3152] | 0.01 to 10
O=C(Nc1cc(F)cc(F)c1)C(=O)N1CCCC(CNC(=O)c2ccc(Nc3nc(NC4(c5ccc(Cl)cc5)CC4)nc(OCC(F)(F)F)n3)cc2)C1 (stereo not shown) [Compound 3485] | 0.01 to 10
COCc1ccc(NC(=O)C(=O)NCC[C@H](NC(=O)c2ccc(Nc3nc(NC4(c5ccc(Cl)cc5)CC4)nc(OCC(F)(F)F)n3)cc2)C(=O)OC)cc1 [Compound 3322] | 0.01 to 10
NC(=O)C(=O)NCCCNC(=O)c1ccc(Nc2nc(NC3(c4ccc(Cl)cc4)CC3)nc(OCC(F)(F)F)n2)cc1 [Compound 3342] | 0.01 to 10
O=C(NC/C(=N/C(=O)c1ccc(Nc2nc(NC3(c4ccc(Cl)cc4)CC3)nc(OCC(F)(F)F)n2)cc1)C(=O)O)C(=O)Nc1ccc(Cc2ccccc2)cc1 [Compound 3159] | 0.01 to 10
CC(C)(CNC(=O)C(=O)Nc1ccccc1-c1cc2ccccc2[nH]1)CNC(=O)c1ccc(Nc2nc(NC3(c4ccc(Cl)cc4)CC3)nc(OCC(F)(F)F)n2)cc1 [Compound 3052] | 0.01 to 10
Cc1cc(NC(=O)C(=O)NCC(C)(C)CNC(=O)c2ccc(Nc3nc(NC4(c5ccc(Cl)cc5)CC4)nc(OCC(F)(F)F)n3)cc2)sn1 [Compound 3010] | 0.01 to 10
O=C(NC[C@H](NC(=O)c1ccc(Nc2nc(NC3(c4ccc(Cl)cc4)CC3)nc(OCC(F)(F)F)n2)cc1)C(=O)O)C(=O)Nc1ccc(-n2ccnc2)cc1 [Compound 3268] | 0.01 to 10
CC(C)(CNC(=O)C(=O)Nc1ccc2[nH]ccc2c1)CNC(=O)c1ccc(Nc2nc(NC3(c4ccc(Cl)cc4)CC3)nc(OCC(F)(F)F)n2)cc1 [Compound 3338] | 0.01 to 10
O=C(NC[C@H](NC(=O)c1ccc(Nc2nc(NC3(c4ccc(Cl)cc4)CC3)nc(OCC(F)(F)F)n2)cc1)C(=O)O)C(=O)Nc1ccc(Oc2cccnc2)cc1 [Compound 3290] | 0.01 to 10
CC(C)(CNC(=O)C(=O)Nc1ccc(Cl)nc1)CNC(=O)c1ccc(Nc2nc(NC3(c4ccc(Cl)cc4)CC3)nc(OCC(F)(F)F)n2)cc1 [Compound 3255] | 0.01 to 10
COC(=O)[C@H](CCNC(=O)C(=O)Nc1ccc(OC2CCOCC2)cc1)NC(=O)c1ccc(Nc2nc(NC3(c4ccc(Cl)cc4)CC3)nc(OCC(F)(F)F)n2)cc1 [Compound 3325] | 0.01 to 10
CCc1ccccc1NC(=O)C(=O)NCC(C)(C)CNC(=O)c1ccc(Nc2nc(NC3(c4ccc(Cl)cc4)CC3)nc(OCC(F)(F)F)n2)cc1 [Compound 3047] | 0.01 to 10
COc1cc(OC)nc(-c2ccc(NC(=O)C(=O)NCCC(NC(=O)c3ccc(Nc4nc(NC5(c6ccc(Cl)cc6)CC5)nc(OCC(F)(F)F)n4)cc3)C(=O)O)cc2)n1 (stereo not shown) [Compound 3523] | 0.01 to 10
CN(CCCNC(=O)c1ccc(Nc2nc(NC3(c4ccc(Cl)cc4)CC3)nc(OCC(F)(F)F)n2)cc1)C(=O)C(=O)Nc1ccccc1 [Compound 3450] | 0.01 to 10
NC(=O)C(=O)NCCCCNC(=O)c1ccc(Nc2nc(NC3(c4ccc(Cl)cc4)CC3)nc(OCC(F)(F)F)n2)cc1 [Compound 3391] | 0.01 to 10
COC(=O)[C@H](CNC(=O)C(=O)Nc1ccc(OCc2ccccc2)cc1)NC(=O)c1ccc(Nc2nc(NC3(c4ccc(Cl)cc4)CC3)nc(OCC(F)(F)F)n2)cc1 [Compound 3090] | 0.01 to 10
CC(C)(CNC(=O)C(=O)NCc1cccc(Cl)c1)CNC(=O)c1ccc(Nc2nc(NC3(c4ccc(Cl)cc4)CC3)nc(OCC(F)(F)F)n2)cc1 [Compound 3020] | 0.01 to 10
CC(C)(CNC(=O)C(=O)Nc1nc2ccccc2s1)CNC(=O)c1ccc(Nc2nc(NC3(c4ccc(Cl)cc4)CC3)nc(OCC(F)(F)F)n2)cc1F [Compound 3568] | 0.01 to 10

Source: US8916702B2 (priority 2012, dated 2014)
